Patent US20250250298A1, “ONCOLYTIC PEPTIDE AND USE THEREOF” (Rise Biopharmaceuticals Inc., priority 2022, published 2025)
Where a SMILES comes first, the peptide text is derived from it. Where no end group is shown, it is not given here.

Experiments:
[1] = tested on: NCI-N87 (Human gastric carcinoma); assay: MTT cytotoxicity, NCI-N87; assay type: cell-based; conditions: NCI-N87, 24 hours incubation
Description: (§1) The MTT assay is a colorimetric method for measuring the activity of enzymes in living cells that reduces Thiazolyl blue tetrazolium bromide (MTT) to formazan dyes showing a purple color. In this embodiment, a colorimetric 3-(4.5-dimethylthiazol-2-yl)-2.5-diphenyltetrazodium bromide (MTT) viability assay was used to assess the in vitro cytotoxicity of oncolytic peptides.
(§2) The half inhibition concentration (IC50) is the concentration required by the oncolytic peptides to reach fifty percent inhibition. In one embodiment, the oncolytic peptides were used for IC50 test via MTT colorimetric assay.
(§3) All cancer cell lines were seeded in a 96-well plate with a concentration of 5000-8000 cells/100 μl/well and incubated for 24 hrs. After medium was removed, 100 μl fresh medium containing peptide (ranging from 50 μM to 0.8 μM) was added to the wells. Following 24 hours incubation, fresh medium with MTT (0.5 mg/ml) was replaced and incubated for 3 hours. After medium/MTT was removed, DMSO was added at 100 μl for dissolving the formazan crystal. Cell survival rate was calculated by measuring the absorbance at 540 nm using a Multi-labeled Microplate Reader (Sunrise™, TECAN).

[2] = tested on: Hepa I-6 (Murine hepatocellular carcinoma); assay: MTT cytotoxicity, Hepa 1-6; assay type: cell-based; conditions: Hepa I-6, 24 hours incubation
Description: as §1, §2
(§4) Human lung cancer lines PC9 and A549 and murine pancreatic cancer cell line Panc02 were cultured in RPMI medium supplemented with 10% fetal bovine serum and antibiotic in this embodiment. Additionally, murine hepatoma cell line Hepa 1-6, murine melanoma cell line B16-F10, murine fibrosarcoma cell line MN-11, murine mammary cancer cell line E0771 and human diploid fibroblast (HFW) were cultured in DMEM medium supplemented with 10% fetal bovine serum and antibiotic. Cells were cultured in a humidified incubator containing 5% CO2 at 37° C.
as §3

Panc02 = assay: MTT cytotoxicity, Panc02; assay type: cell-based, murine; conditions: Panc02, 24 hours incubation
Description: as §1, §2, §4, §3

[3] = tested on: C9 (Human oral cancer cell); assay: MTT cytotoxicity, C9; assay type: cell-based; conditions: C9, 24 hours incubation
Description: as §1, §2, §3

[4] = tested on: HepG2 Cancer Cells (Human hepatocellular carcinoma); assay: MTT cytotoxicity, HepG2; assay type: cell-based; conditions: HepG2, 24 hours incubation
Description: as §1, §2, §3

[5] = tested on: EO771 (Murine mammary adenocarcinoma); assay: MTT cytotoxicity, EO771; assay type: cell-based; conditions: EO771, 24 hours incubation
Description: as §1, §2, §4, §3

[6] = tested on: OECM-1 (Human oral cancer cell); assay: MTT cytotoxicity, OECM-1; assay type: cell-based; conditions: OECM-1, 24 hours incubation
Description: as §1, §2, §3

[7] = tested on: PC9 (Human non-small cell lung cancer cell); assay: MTT cytotoxicity, PC9; assay type: cell-based; conditions: PC9, 24 hours incubation
Description: as §1, §2, §4, §3

[8] = tested on: MN-11 (Murine fibrosarcoma); assay: MTT cytotoxicity, MN-11; assay type: cell-based; conditions: MN-11, 24 hours incubation
Description: as §1, §2, §4, §3

[9] = tested on: SAS (Human tongue carcinoma); assay: MTT cytotoxicity, SAS; assay type: cell-based; conditions: 24 hours incubation
Description: as §1, §2, §3

[10] = tested on: B16-F10 (Murine skin malignant melanoma); assay: MTT cytotoxicity, B16-F10; assay type: cell-based; conditions: B16-F10, 24 hours incubation
Description: as §1, §2, §4, §3

HFW (Human fibroblast) = assay: MTT cytotoxicity, HFW; assay type: cell-based; conditions: 24 hours incubation
Description: as §1, §2, §4, §3

[11] = Peptide stability in serum; assay type: in vitro ADME; conditions: 25% (vol/vol) bovine calf serum
Method: Since this kind of peptide is highly toxic, the hope is that the peptide can be decomposed after inducing cancer cells to release danger-associated molecular patterns (DAMPs), and will not stay in the body for too long. After exposure to 25% (vol/vol) bovine calf serum, the residues of peptides were analyzed by liquid chromatography, and the stability at different time points was calculated.

[12] = tested on: A549 (Human non-small cell lung cancer cell); assay: MTT cytotoxicity, A549; assay type: cell-based; conditions: A549, 24 hours incubation
Description: as §1, §2, §4, §3

[13] = tested on: HCT-15 (Human colorectal cancer); assay: MTT cytotoxicity, HCT-15; assay type: cell-based; conditions: HCT-15, 24 hours incubation
Description: as §1, §2, §3

RBC (Human blood cell) = assay: Cytotoxicity, RBC; assay type: cell-based
Description: as §2

[14] = tested on: A375 (human malignant melanoma); assay: MTT cytotoxicity, A375; assay type: cell-based; conditions: A375, 24 hours incubation
Description: as §1, §2, §3

[15] = tested on: HUVEC (Human Umbilical Vein Endothelial (Cell)); assay: MTT cytotoxicity, HUVEC; assay type: cell-based; conditions: 24 hours incubation
Description: as §1, §2, §3

| Molecule | IC50 [1] [µM] | IC50 [2] [µM] | IC50 (Panc02) [µM] | IC50 [3] [µM] | IC50 [4] [µM] | IC50 [5] [µM] | IC50 [6] [µM] | IC50 [7] [µM] | IC50 [8] [µM] | IC50 [9] [µM] | IC50 [10] [µM] | IC50 (HFW (Human fibroblast)) [µM] | IC50 [12] [µM] | IC50 [13] [µM] | IC50 (RBC (Human blood cell)) [µM] | IC50 [14] [µM] | IC50 [15] [µM] | also measured |
| --- | --- | --- | --- | --- | --- | --- | --- | --- | --- | --- | --- | --- | --- | --- | --- | --- | --- | --- |
| KKKKRRKKWRKWLKWLAKK-NH2 [SEQ ID NO: 7, KKKK-RR-KK-WRK-WLK-WLA-KK-NH2] | 6.16 | 4.92 | 10.6 | 9.06 | 12.1 | 6.16 | 10.2 | 2.93 | 5.73 | 7.67 | 15.3 | 12 | 3.3 | 7.13 | 50.5 | 4.01 | 3.95 | Serum stability (residual peptide) ([11]; 0 hr): 100.00%; remaining at 0.5 h ([11]; 0.5 hr, read-out: Serum stability (residual peptide)): 101%; Serum stability (residual peptide) ([11]; 1 hr): 123.30%; remaining at 2 h ([11]; 2 hr, read-out: Serum stability (residual peptide)): 72.1%; remaining at 4 h ([11]; 4 hr, read-out: Serum stability (residual peptide)): 59.5%; remaining at 6 h ([11]; 6 hr, read-out: Serum stability (residual peptide)): 54.4%; remaining at 8 h ([11]; 8 hr, read-out: Serum stability (residual peptide)): 44.4%; metabolised at 8 h ([11]; after eight hours, read-out: Decrease of peptide in serum): ~56%; metabolised at 4 h ([11]; at the fourth hour, read-out: Decrease of peptide in serum): ~40% |
| CC(C)C[C@H](NC(=O)[C@H](Cc1ccc2ccccc2c1)NC(=O)[C@H](CCCCN)NC(=O)[C@H](CC(C)C)NC(=O)[C@H](Cc1c[nH]c2ccccc12)NC(=O)[C@H](CCCCN)NC(=O)[C@H](CCCNC(=N)N)NC(=O)[C@H](Cc1c[nH]c2ccccc12)NC(=O)[C@H](CCCCN)NC(=O)[C@H](CCCCN)NC(=O)[C@H](CCCCN)NC(=O)[C@H](CCCCN)NC(=O)[C@H](CCCCN)NC(=O)[C@H](CCCCN)NC(=O)[C@H](CCCCN)NC(=O)[C@@H](N)CCCCN)C(=O)N[C@@H](C)C(=O)N[C@@H](CCCCN)C(=O)N[C@@H](CCCCN)C(N)=O [SEQ ID NO: 2, KKKK-KK-KK-WRK-WLK-Nal-LA-KK-NH2] (HELM PEPTIDE1{K.K.K.K.K.K.K.K.W.R.K.W.L.K.[O=C([C@H](Cc1ccc2ccccc2c1)N[*:1])[*:2]].L.A.K.K.[am]}$$$$V2.0; N-terminus assumed) | 8.58 | 8.5 | 7.17 | 16 | 11 | 10.1 | 15.5 | 4.36 | 13.4 | 15.8 | 13.7 | 11 | 6.34 | 6.6 | 45 | 5.59 | 9.03 | – |
| KKKKKKKKWRKWLKWLAKK-NH2 [SEQ ID NO: 1, KKKK-KK-KK-WRK-WLK-WLA-KK-NH2] | 17.1 | 13.3 | 13.4 | 21 | 13.4 | 16.7 | 18.8 | 8.48 | 14.6 | 14.7 | 19.2 | 16.3 | 7.19 | 12.2 | 52.6 | 10.6 | 9.35 | – |
| CC(C)C[C@H](NC(=O)[C@H](Cc1ccc2ccccc2c1)NC(=O)[C@H](CCCNC(=N)N)NC(=O)[C@H](CCCNC(=N)N)NC(=O)[C@H](CCCCN)NC(=O)[C@H](CCCCN)NC(=O)[C@H](CCCCN)NC(=O)[C@@H](N)CCCCN)C(=O)N[C@@H](C)C(=O)N[C@@H](CCCCN)C(N)=O [SEQ ID NO: 10, KKKK-RR-Nal-LAK-NH2] (HELM PEPTIDE1{K.K.K.K.R.R.[O=C([C@H](Cc1ccc2ccccc2c1)N[*:1])[*:2]].L.A.K.[am]}$$$$V2.0; N-terminus assumed) | 82.9 | 41.8 | 75.2 | 56.8 | 84.8 | 55.4 | 35.1 | – | 93.5 | 98.4 | 136 | 488 | 46.3 | 57.6 | – | – | – | – |
| CC(C)C[C@H](NC(=O)[C@H](Cc1ccc2ccccc2c1)NC(=O)[C@H](CCCCN)NC(=O)[C@H](CC(C)C)NC(=O)[C@H](Cc1c[nH]c2ccccc12)NC(=O)[C@H](CCCCN)NC(=O)[C@H](CCCNC(=N)N)NC(=O)[C@H](Cc1c[nH]c2ccccc12)NC(=O)[C@H](CCCCN)NC(=O)[C@H](CCCCN)NC(=O)[C@H](CCCCN)NC(=O)[C@H](CCCCN)NC(=O)[C@H](CCCCN)NC(=O)[C@@H](N)CCCCN)C(=O)N[C@@H](C)C(=O)N[C@@H](CCCCN)C(N)=O [SEQ ID NO: 3, KKKK-KK-WRK-WLK-Nal-LAK-NH2] (HELM PEPTIDE1{K.K.K.K.K.K.W.R.K.W.L.K.[O=C([C@H](Cc1ccc2ccccc2c1)N[*:1])[*:2]].L.A.K.[am]}$$$$V2.0; N-terminus assumed) | 10.7 | 7.16 | 8.43 | 13.2 | 15.7 | 6.32 | 15.5 | 6.85 | 16.1 | 17.1 | 15.4 | 9.15 | 5.05 | 8.89 | 38.4 | 8.27 | 7.61 | – |
| CC(C)C[C@H](NC(=O)[C@H](Cc1ccc2ccccc2c1)NC(=O)[C@H](CCCCN)NC(=O)[C@H](CC(C)C)NC(=O)[C@H](Cc1c[nH]c2ccccc12)NC(=O)[C@H](CCCCN)NC(=O)[C@H](CC(C)C)NC(=O)[C@H](Cc1c[nH]c2ccccc12)NC(=O)[C@H](CCCNC(=N)N)NC(=O)[C@H](CCCNC(=N)N)NC(=O)[C@H](CCCCN)NC(=O)[C@H](CCCCN)NC(=O)[C@H](CCCCN)NC(=O)[C@@H](N)CCCCN)C(=O)N[C@@H](CCCCN)C(=O)N[C@@H](CCCCN)C(N)=O [SEQ ID NO: 6, KKKK-RR-WLK-WLK-Nal-LKK-NH2] (HELM PEPTIDE1{K.K.K.K.R.R.W.L.K.W.L.K.[O=C([C@H](Cc1ccc2ccccc2c1)N[*:1])[*:2]].L.K.K.[am]}$$$$V2.0; N-terminus assumed) | 9.41 | 8.46 | 8.81 | 12.7 | 14.2 | 10 | 16.4 | 3.36 | 5.56 | 15.6 | 10.5 | 7.2 | 7.07 | 8.03 | 35.4 | 10.8 | 6.84 | – |
| KKKKRRKKWLKWLKWLKKK-NH2 [SEQ ID NO: 4, KKKK-RR-KK-WLK-WLK-WLK-KK-NH2] | 15.1 | 10.5 | 16 | 16.6 | 14.6 | 13.9 | 18 | 7.87 | 13.2 | 18.6 | 16.3 | 20.5 | 8.89 | 10.8 | 58.6 | 9.98 | 4.66 | – |
